Measurements: US11655225B2, “Antimycobacterial heterocyclic amides” (Crestone, Inc., priority 2018, dated 2023)
Converted amounts (≈) assume the structure as drawn.

Key:
M. chelonae = assay: MIC determination, CLSI M24-A; assay type: cell-based; settings: Mycobacteroides chelonae, range over compounds and species, read-out: MIC90 (concentration which inhibits 90% of strains)
M. abscessus [1] = assay: MIC determination, CLSI M24-A; assay type: cell-based; settings: Mycobacteroides abscessus, range over compounds and species, read-out: MIC90 (concentration which inhibits 90% of strains)
M. fortuitum = assay: MIC determination, CLSI M24-A; assay type: cell-based; settings: Mycolicibacterium fortuitum, range over compounds and species, read-out: MIC90 (concentration which inhibits 90% of strains)
[2] = test system: azithromycin-, doxycycline, and sulfamethoxazole-resistant M. abscessus; assay: MIC against drug-resistant strains; assay type: cell-based; settings: for MIC: Mycobacteroides abscessus, clinically relevant resistant strains, M. abscessus, range over compounds and strains; for activity against resistant strains: azithromycin-, doxycycline, and sulfamethoxazole-resistant M. abscessus
M. abscessus [3] = assay: Bactericidal activity; assay type: cell-based
M. tuberculosis = assay: Bactericidal activity; assay type: cell-based
physchem = settings: oil or lipid
Mabs #21 = assay: 28-day mouse model of chronic NTM lung infection, efficacy; assay type: in vivo, M. abscessus; settings: GM-CSF KO mice; 25 mg/kg once daily over 4 weeks, intratracheal microspray, 5% corn oil/saline emulsion
[4] = mouse, in vivo
proton motive force = assay: Membrane potential and electrochemical pH gradient monitoring; assay type: cell-based; settings: Mtb intact cells and inverted membrane vesicles; data not shown
Mabs ATCC19977 = assay type: cell-based; settings: isolated at 4×MIC on 7H11-ADC agar

Row | SMILES | MIC90 (M. chelonae) | MIC90 (M. abscessus [1]) | MIC90 (M. fortuitum) | MIC [2] | activity against resistant strains [2] | bactericidal effect (M. abscessus [3]) | bactericidal effect (M. tuberculosis) | solubility (physchem) | lung bacterial load (CFU) versus vehicle control (Mabs #21) | tolerability [4] | effect on proton motive force (membrane potential, electrochemical pH gradient) (proton motive force) | mutations found in spontaneous-resistant mutants (Mabs ATCC19977)
1 | CC12CCCC(C(=O)Nc3nc4ccc(OC(F)(F)F)cc4s3)(CCC1)C2 [Example 5, 5-methyl-N-[6-(trifluoromethoxy)-1,3-benzothiazol-2-yl]bicyclo[3.3.1]nonane-1-carboxamide] | 0.12 to 1 µg/mL (≈ 0.301 to 2.51 µM) | 0.12 to 1 µg/mL (≈ 0.301 to 2.51 µM) | 0.12 to 1 µg/mL (≈ 0.301 to 2.51 µM) | 0.03 to 4 µg/mL (≈ 0.0753 to 10 µM) | active | – | – | – | – | – | – | –
2 | CC12CCCC(C(=O)Nc3nc4cc(Cl)cc(Cl)c4s3)(CCC1)C2 [Example 2, N-(5,7-dichloro-1,3-benzothiazol-2-yl)-5-methylbicyclo[3.3.1]nonane-1-carboxamide] | 0.12 to 1 µg/mL (≈ 0.313 to 2.61 µM) | 0.12 to 1 µg/mL (≈ 0.313 to 2.61 µM) | 0.12 to 1 µg/mL (≈ 0.313 to 2.61 µM) | 0.03 to 4 µg/mL (≈ 0.0783 to 10.4 µM) | active | bactericidal | bactericidal | – | – | – | – | –
3 | CC12CC3CC(C)(C1)CC(C(=O)Nc1nc4ccc(OC(F)(F)F)cc4s1)(C3)C2 [Example 45, 3,5-dimethyl-N-[6-(trifluoromethoxy)-1,3-benzothiazol-2-yl]adamantane-1-carboxamide] | 0.12 to 1 µg/mL (≈ 0.283 to 2.36 µM) | 0.12 to 1 µg/mL (≈ 0.283 to 2.36 µM) | 0.12 to 1 µg/mL (≈ 0.283 to 2.36 µM) | 0.03 to 4 µg/mL (≈ 0.0707 to 9.42 µM) | active | – | – | ≤ 250 mg/mL | statistically significant CFU reduction | very well tolerated | – | –
4 | CC1CC(C(=O)Nc2nc3c(F)cc(F)cc3s2)CC(C)(C)C1 (stereo not shown) [Example 80, N-(4,6-difluoro-1,3-benzothiazol-2-yl)-3,3,5-trimethylcyclohexane-1-carboxamide] | – | – | – | 0.03 to 4 µg/mL (≈ 0.0886 to 11.8 µM) | active | – | – | – | – | – | did not result from the collapse of the proton motive force | non-synonymous mutations in their mmpL3 gene (L551S, I306S, A309P)
5 | CC1CC(C(=O)Nc2nc3ccc(C(F)(F)F)cc3s2)CC(C)(C)C1 (stereo not shown) [Example 79, 3,3,5-trimethyl-N-[6-(trifluoromethyl)-1,3-benzothiazol-2-yl]cyclohexane-1-carboxamide] | – | – | – | – | – | – | – | – | – | – | – | non-synonymous mutations in their mmpL3 gene (L551S, I306S, A309P)
